Ten compounds from PMC3401096 (Molecular Biosystems, 2009) can be followed below.

Experiment [1] concerns the target T1, JMJD2E (Homo sapiens, UniProt B2RXH2).
T1 sequence (B2RXH2 1-337): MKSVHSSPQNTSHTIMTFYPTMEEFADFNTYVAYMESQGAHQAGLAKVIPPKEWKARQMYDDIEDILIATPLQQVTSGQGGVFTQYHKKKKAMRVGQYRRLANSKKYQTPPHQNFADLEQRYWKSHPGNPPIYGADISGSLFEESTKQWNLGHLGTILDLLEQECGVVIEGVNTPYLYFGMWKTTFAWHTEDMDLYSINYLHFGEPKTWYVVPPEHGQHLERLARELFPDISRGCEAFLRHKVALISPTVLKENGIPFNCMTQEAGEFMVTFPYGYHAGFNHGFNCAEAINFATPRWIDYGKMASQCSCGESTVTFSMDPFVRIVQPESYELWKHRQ
The experiment is described as follows: biochemical.

The target in experiment [2] is T1, JMJD2E. The experiment is described as follows: miniaturized 1,536-well FDH-coupled JMJD2E qHTS assay. The class given is biochemical.
Experiment [3] concerns the target T1, JMJD2E. The experiment is described as follows: kinetic analysis of the mode of inhibition of JMJD2E with respect to 2OG. The format is biochemical.
Experiment [4] addresses T1, JMJD2E.

Counter-ions that a name gives are not always drawn. Like-named read-outs stand apart in the source and are kept apart here.

As to `O=c1cc(-c2ccccc2)oc2cc(O)c(O)c(O)c12` [Baicalein], the half-inhibitory concentration (IC50) on JMJD2E [1] worked out at 4.5 µM; at JMJD2E [2] it was 4 µM. Further, the “mode of inhibition of JMJD2E with respect to 2OG” value on JMJD2E [3] is “noncompetitive”.
As to `NCCc1ccc(O)c(O)c1` [Dopamine hydrochloride], the IC50 came to 2.2 µM against JMJD2E [1] and 7.1 µM against JMJD2E [2].
Turning to `O=C(O[C@@H]1Cc2c(O)cc(O)cc2O[C@@H]1c1cc(O)c(O)c(O)c1)c1cc(O)c(O)c(O)c1` [Epigallocatechin gallate], half-maximal inhibition at JMJD2E [4] (IC50) required 3 µM. This lies in the single-digit micromolar range.
`Oc1cc(O)c2c(c1)O[C@H](c1cc(O)c(O)c(O)c1)[C@H](O)C2` [Epigallocatechin] gave an IC50 at JMJD2E [2] of 5 µM.
With `Oc1ccc(C2CNCCc3c2cc(O)c(O)c3Cl)cc1` (stereo not shown) [Fenoldopam bromide], the half-inhibitory concentration (IC50) at JMJD2E [1] is 10.1 µM; on JMJD2E [2] it was 7.9 µM.
On JMJD2E [4], `C[C@](N)(Cc1ccc(O)c(O)c1)C(=O)O` [L-Methyldopa] showed an IC50 of 6.1 µM.
With `NCCc1cc(O)c(O)cc1O` [Oxidopamine Hydrochloride], the concentration for half-maximal inhibition (IC50) worked out at 12.2 µM on JMJD2E [1] and 4 µM against JMJD2E [2].
Turning to `CC1(C)CCC2=C(O1)c1ccccc1C(=O)C2=O` [beta-Lapachone], the 50% inhibitory concentration (IC50) at JMJD2E [1] was 8.4 µM; on JMJD2E [2], 3.6 µM.
On to `Oc1cc2c(cc1O)[C@@H]1c3ccc(O)c(O)c3OC[C@]1(O)C2` [hematoxylin], for which the IC50 against JMJD2E [1] turned out to be 3.4 µM; on JMJD2E [2] it was 2 µM.
With S(−)-Carbidopa, at JMJD2E [3], the “mode of inhibition of JMJD2E with respect to 2OG” value is listed as “uncompetitive”. The compound further yielded a αKi at JMJD2E [3] (uncompetitive with respect to 2OG) of 1.98 ± 0.17. The compound further yielded an IC50 at JMJD2E [4] of 7.5 µM.
